Assay results as given in patent US7943770B2, “Fused quinoline derivative and use thereof” (Takeda Pharmaceutical Company Limited, priority 2004, dated 2011).

Each molecule was assayed against T1, hNK2 receptor (Homo sapiens, UniProt P21452) (assay: Radio-ligand ([125I]-NKA) receptor binding inhibitory activity using membrane fraction of hNK2 receptor-expressing CHO cell). Details: membrane fraction of hNK2 receptor-expressing CHO cells, 25° C., 30 min.
T1 construct: host or cells: CHO cells
T1 sequence (P21452 1-398): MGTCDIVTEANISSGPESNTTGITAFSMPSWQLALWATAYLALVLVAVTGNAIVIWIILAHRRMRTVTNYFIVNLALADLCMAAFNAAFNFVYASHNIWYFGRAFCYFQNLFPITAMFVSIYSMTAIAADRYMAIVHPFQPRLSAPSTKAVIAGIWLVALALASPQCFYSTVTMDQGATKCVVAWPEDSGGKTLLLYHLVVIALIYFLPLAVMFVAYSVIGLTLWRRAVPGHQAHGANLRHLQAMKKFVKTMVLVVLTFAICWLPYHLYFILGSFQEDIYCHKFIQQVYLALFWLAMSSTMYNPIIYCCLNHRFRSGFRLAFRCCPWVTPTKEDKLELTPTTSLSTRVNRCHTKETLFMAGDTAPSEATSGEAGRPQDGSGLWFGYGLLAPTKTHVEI
Method in brief: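 Inhibition of [125I]-NKA binding ([…] solution added) measured after 30 min at 25 °C using hNK2-CHO membrane fraction (20 μg/mL suspension) in pH 7.4 Tris buffer containing MnCl2, BSA and protease inhibitors. Filter-bound counts read; activity calculated as fraction of specific binding, non-specific defined with unlabeled NKA.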
For O=C(NCc1ccc(F)cc1)N[C@@H]1CCCC[C@@H]1C(=O)N1CC[C@@H]2[C@H](c3ccccc3)Nc3ccccc3[C@@H]21 [Example 145, N-(4-Fluorobenzyl)-N′-((1R,2S)-2-{[(3aR,4R,9bR)-4-phenyl-2,3,3a,4,5,9b-hexahydro-1H-pyrrolo[3,2-c]quinolin-1-yl]carbonyl}cyclohexyl)urea], the IC50 was < 10 nM. For COC[C@@H]1Nc2ccccc2[C@H]2[C@@H]1CCN2C(=O)[C@H]1CCCC[C@H]1NC(=O)c1ccc2c(c1)OCCN2C [Example 269, N-((1R,2S)-2-{[(3aR,4R,9bR)-4-(Methoxymethyl)-2,3,3a,4,5,9b-hexahydro-1H-pyrrolo[3,2-c]quinolin-1-yl]carbonyl}cyclohexyl)-4-methyl-3,4-dihydro-2H-1,4-benzoxazin-7-carboxamide], the IC50 was < 1 nM. With CCC[C@@H]1Nc2ccccc2[C@H]2[C@@H]1CCN2C(=O)[C@H]1CCCC[C@H]1NC(=O)Nc1ccc2c(c1)OCO2 [Example 200, N-1,3-Benzodioxol-5-yl-N′-((1R,2S)-2-{[(3aR,4S,9bR)-4-propyl-2,3,3a,4,5,9b-hexahydro-1H-pyrrolo[3,2-c]quinolin-1-yl]carbonyl}cyclohexyl)urea] the IC50 was < 1 nM. For COC[C@@H]1Nc2ccccc2[C@H]2[C@@H]1CCN2C(=O)[C@H]1CCCC[C@H]1NC(=O)c1ccc(-n2cncn2)cc1 [Example 265, N-((1R,2S)-2-{[(3aR,4R,9bR)-4-(Methoxymethyl)-2,3,3a,4,5,9b-hexahydro-1H-pyrrolo[3,2-c]quinolin-1-yl]carbonyl}cyclohexyl)-4-(1H-1,2,4-triazol-1-yl)benzamide], the IC50 was < 1 nM. C[C@]12CCN(C(=O)[C@H]3CCCC[C@H]3NC(=O)c3ccccc3)[C@H]1c1ccccc1N[C@H]2c1ccsc1 [Example 193, N-((1R,2S)-2-{[(3aR,4R,9bR)-3a-Methyl-4-(3-thienyl)-2,3,3a,4,5,9b-hexahydro-1H-pyrrolo[3,2-c]quinolin-1-yl]carbonyl}cyclohexyl)benzamide] was tested, and the IC50 was < 1 nM. O=C(N[C@@H]1CCCC[C@@H]1C(=O)N1CC[C@@H]2[C@H](c3ccccc3)Nc3ccccc3[C@@H]21)c1ccc2ccccc2c1 [Example 107, N-((1R,2S)-2-{[(3aR,4R,9bR)-4-Phenyl-2,3,3a,4,5,9b-hexahydro-1H-pyrrolo[3,2-c]quinolin-1-yl]carbonyl}cyclohexyl)-2-naphthamide] was tested, and the IC50 was < 1 nM. For O=C(N[C@@H]1CCCC[C@@H]1C(=O)N1CC[C@@H]2[C@H](c3ncc[nH]3)Nc3ccccc3[C@@H]21)c1ccccc1F [Example 302, 2-Fluoro-N-((1R,2S)-2-{[(3aR,4R,9bR)-4-(1H-imidazol-2-yl)-2,3,3a,4,5,9b-hexahydro-1H-pyrrolo[3,2-c]quinolin-1-yl]carbonyl}cyclohexyl)benzamide], the IC50 was < 1 nM. In the case of CCC[C@@H]1Nc2ccccc2[C@H]2[C@@H]1CCN2C(=O)[C@H]1CCCC[C@H]1NC(=O)Nc1ccc(F)cc1 [Example 197, N-(4-Fluorophenyl)-N′-((1R,2S)-2-{[(3aR,4S,9bR)-4-propyl-2,3,3a,4,5,9b-hexahydro-1H-pyrrolo[3,2-c]quinolin-1-yl]carbonyl}cyclohexyl)urea], the IC50 is reported as < 1 nM. With CCNC(=O)N[C@@H]1CCCC[C@@H]1C(=O)N1CC[C@@H]2[C@H](c3ccsc3)Nc3ccccc3[C@@H]21 [Example 187, N-Ethyl-N′-((1R,2S)-2-{[(3aR,4R,9bR)-4-(3-thienyl)-2,3,3a,4,5,9b-hexahydro-1H-pyrrolo[3,2-c]quinolin-1-yl]carbonyl}cyclohexyl)urea] the IC50 was < 1 nM. O=C(/C=C/c1ccccc1)N[C@@H]1CCCC[C@@H]1C(=O)N1CC[C@@H]2[C@H](c3ccccc3)Nc3ccccc3[C@@H]21 [Example 101, (2E)-3-Phenyl-N-((1R,2S)-2-{[(3aR,4R,9bR)-4-phenyl-2,3,3a,4,5,9b-hexahydro-1H-pyrrolo[3,2-c]quinolin-1-yl]carbonyl}cyclohexyl)acrylamide] was tested, and the IC50 was < 1 nM. In the case of COC[C@@H]1Nc2ccccc2[C@H]2[C@@H]1CCN2C(=O)[C@H]1CCCC[C@H]1NC(=O)c1ccc(N2CCOCC2)nc1 [Example 286, N-((1R,2S)-2-{[(3aR,4R,9bR)-4-(Methoxymethyl)-2,3,3a,4,5,9b-hexahydro-1H-pyrrolo[3,2-c]quinolin-1-yl]carbonyl}cyclohexyl)-6-morpholin-4-ylnicotinamide], the IC50 is reported as < 10 nM. CCOC(=O)CCC(=O)N[C@@H]1CCCC[C@@H]1C(=O)N1CC[C@@H]2[C@H](c3ccccc3)Nc3ccccc3[C@@H]21 [Example 108] was tested, and the IC50 was < 10 nM. COC[C@@H]1Nc2ccccc2[C@H]2[C@@H]1CCN2C(=O)[C@H]1CCCC[C@H]1NC(=O)c1ccc(-n2cccn2)cc1 [Example 264, N-((1R,2S)-2-{[(3aR,4R,9bR)-4-(Methoxymethyl)-2,3,3a,4,5,9b-hexahydro-1H-pyrrolo[3,2-c]quinolin-1-yl]carbonyl}cyclohexyl)-4-(1H-pyrazol-1-yl)benzamide] was tested, and the IC50 was < 1 nM. O=C(NCCc1ccccn1)N[C@@H]1CCCC[C@@H]1C(=O)N1CC[C@@H]2[C@H](c3ccccc3)Nc3ccccc3[C@@H]21 [Example 164, N-((1R,2S)-2-{[(3aR,4R,9bR)-4-Phenyl-2,3,3a,4,5,9b-hexahydro-1H-pyrrolo[3,2-c]quinolin-1-yl]carbonyl}cyclohexyl)-N′-(2-pyridin-2-ylethyl)urea] was tested, and the IC50 was < 1 nM. O=C(N[C@@H]1CCCC[C@@H]1C(=O)N1CC[C@@H]2[C@H](c3cccnc3)Nc3ccccc3[C@@H]21)c1ccccc1 (relative stereo) [Example 20, N-((1R,2S)-2-{[(3aR*,4R*,9bR*)-4-Pyridin-3-yl-2,3,3a,4,5,9b-hexahydro-1H-pyrrolo[3,2-c]quinolin-1-yl]carbonyl}cyclohexyl)benzamide] was tested, and the IC50 was < 10 nM. O=C(N[C@@H]1CCCC[C@@H]1C(=O)N1CC[C@@H]2[C@H](C3CC3)Nc3ccccc3[C@@H]21)c1ccccc1 [Example 59, N-((1R,2S)-2-[(3aR,4S,9bR)-(4-Cyclopropyl-2,3,3a,4,5,9b-hexahydro-1H-pyrrolo[3,2-c]quinolin-1-yl)carbonyl]cyclohexyl)benzamide] was tested, and the IC50 was < 10 nM. In the case of O=C(N[C@@H]1C2CCC(CC2)[C@@H]1C(=O)N1CC[C@@H]2[C@H](c3ccccc3)Nc3ccccc3[C@@H]21)c1ccccc1 [Example 178, N-((2R,3S)-3-{[(3aR,4R,9bR)-4-Phenyl-2,3,3a,4,5,9b-hexahydro-1H-pyrrolo[3,2-c]quinolin-1-yl]carbonyl}bicyclo[2.2.2]oct-2-yl)benzamide], the IC50 is reported as < 10 nM. With CC(C)CCNC(=O)N[C@@H]1CCCC[C@@H]1C(=O)N1CC[C@@H]2[C@H](c3ccccc3)Nc3ccccc3[C@@H]21 [Example 166, N-(3-Methylbutyl)-N′-((1R,2S)-2-{[(3aR,4R,9bR)-4-phenyl-2,3,3a,4,5,9b-hexahydro-1H-pyrrolo[3,2-c]quinolin-1-yl]carbonyl}cyclohexyl)urea] the IC50 was < 1 nM. COCCCNC(=O)N[C@@H]1CCCC[C@@H]1C(=O)N1CC[C@@H]2[C@H](c3ccccc3)Nc3ccccc3[C@@H]21 [Example 161, N-(3-Methoxypropyl)-N′-((1R,2S)-2-{[(3aR,4R,9bR)-4-phenyl-2,3,3a,4,5,9b-hexahydro-1H-pyrrolo[3,2-c]quinolin-1-yl]carbonyl}cyclohexyl)urea] was tested, and the IC50 was < 10 nM. For O=C(N[C@@H]1CCCC[C@@H]1C(=O)N1CC[C@@H]2[C@H](c3ccccc3)Nc3ccccc3[C@@H]21)c1ccncc1 [Example 91, N-((1R,2S)-2-{[(3aR,4R,9bR)-4-Phenyl-2,3,3a,4,5,9b-hexahydro-1H-pyrrolo[3,2-c]quinolin-1-yl]carbonyl}cyclohexyl)isonicotinamide], the IC50 was < 10 nM. In the case of O=C(Nc1cccnc1)N[C@@H]1CCCC[C@@H]1C(=O)N1CC[C@@H]2[C@H](c3ccccc3)Nc3ccccc3[C@@H]21 [Example 171, N-((1R,2S)-2-{[(3aR,4R,9bR)-4-Phenyl-2,3,3a,4,5,9b-hexahydro-1H-pyrrolo[3,2-c]quinolin-1-yl]carbonyl}cyclohexyl)-N′-pyridin-3-ylurea], the IC50 is reported as < 10 nM. With O=C(NCC(F)(F)F)N[C@@H]1CCCC[C@@H]1C(=O)N1CC[C@@H]2[C@H](c3ccccc3)Nc3ccccc3[C@@H]21 [Example 173, N-((1R,2S)-2-{[(3aR,4R,9bR)-4-Phenyl-2,3,3a,4,5,9b-hexahydro-1H-pyrrolo[3,2-c]quinolin-1-yl]carbonyl}cyclohexyl)-N′-(2,2,2-trifluoroethyl)urea] the IC50 was < 10 nM. In the case of COC[C@@H]1Nc2ccccc2[C@H]2[C@@H]1CCN2C(=O)[C@H]1CCCC[C@H]1NC(=O)c1ccc(N2CCCCC2)nc1 [Example 254, N-((1R,2S)-2-{[(3aR,4R,9bR)-4-(Methoxymethyl)-2,3,3a,4,5,9b-hexahydro-1H-pyrrolo[3,2-c]quinolin-1-yl]carbonyl}cyclohexyl)-6-piperidin-1-ylnicotinamide], the IC50 is reported as < 1 nM. Cc1ccc(C(=O)N[C@@H]2CCCC[C@@H]2C(=O)N2CC[C@@H]3[C@H](c4ccccc4)Nc4ccccc4[C@@H]32)cc1 [Example 99, 4-Methyl-N-((1R,2S)-2-{[(3aR,4R,9bR)-4-phenyl-2,3,3a,4,5,9b-hexahydro-1H-pyrrolo[3,2-c]quinolin-1-yl]carbonyl}cyclohexyl)benzamide] was tested, and the IC50 was < 10 nM. CCC[C@@H]1Nc2ccccc2[C@H]2[C@@H]1CCN2C(=O)[C@H]1CCCC[C@H]1NC(=O)c1ccc2[nH]c(C)nc2c1 [Example 201, 2-methyl-N-((1R,2S)-2-{[(3aR,4S,9bR)-4-propyl-2,3,3a,4,5,9b-hexahydro-1H-pyrrolo[3,2-c]quinolin-1-yl]carbonyl}cyclohexyl)-1H-benzimidazole-5-carboxamide] was tested, and the IC50 was < 1 nM.
